The values below come from patent US5674905A, “Bicyclooctane and bicycloheptane derivatives” (James Black Foundation Limited, priority 1992, dated 1997).

In the first test the target is T1, CCKB receptor (Mus musculus, UniProt P56481).
T1 construct: The cortex was dissected, weighed and homogenised in 40 ml ice-cold buffer; from tissue; host or cells: cerebral cortex membranes of male CD1 mice (Charles River)
T1 sequence (P56481 1-453): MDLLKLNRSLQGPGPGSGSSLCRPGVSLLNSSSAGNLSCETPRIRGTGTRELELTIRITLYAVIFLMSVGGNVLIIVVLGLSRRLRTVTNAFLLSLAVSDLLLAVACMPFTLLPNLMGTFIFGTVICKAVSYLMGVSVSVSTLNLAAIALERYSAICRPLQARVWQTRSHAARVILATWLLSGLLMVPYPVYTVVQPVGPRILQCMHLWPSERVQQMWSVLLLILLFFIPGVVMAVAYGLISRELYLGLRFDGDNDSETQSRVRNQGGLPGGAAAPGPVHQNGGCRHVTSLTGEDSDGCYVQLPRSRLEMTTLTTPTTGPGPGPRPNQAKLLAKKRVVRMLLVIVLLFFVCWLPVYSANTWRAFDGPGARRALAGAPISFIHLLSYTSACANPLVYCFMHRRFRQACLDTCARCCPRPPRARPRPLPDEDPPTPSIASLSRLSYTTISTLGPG
Kind of test: radioligand binding assay at the CCKB receptor in mouse cortical membranes ([125I]-CCK8S). Particulars: 150 min at 21±3°. The method, then: The compounds of the examples were tested for binding at the CCKB receptor in mouse cortical membranes by means of a radioligand binding assay. The procedure was as follows:
The whole brains from male mice (CD1 22-25 g; Charles River) were removed and placed in ice-cold buffer (pH7.2 @ 21±3 °) of the following composition (mM); 10 HEPES, 130 NaCl, 4.7 KCl, 5 MgCl2, 1 EDTA and containing 0.25 g.1^-1 bacitracin. The cortex was dissected, weighed and homogenised in 40 ml ice-cold buffer using a Teflon-in-glass homogeniser. The homogenate was centrifuged at 39,800 g for 20 min at @ 4°, the supernatant discarded and the pellet resuspended by homogenisation in fresh buffer. The homogenate was recentrifuged (39,800 g; 20 min @4°) and the final pellet was resuspended in HEPES buffer to give a tissue concentration of 2 mg.ml^-1 (original wet weight).
The membranes ([…]) were incubated for 150 min at 21±3° in a final volume of 0.5 ml with HEPES buffer containing [^125 I]-CCK8S (0.05 ml; 200 pM NEN 2200 Ci.mmol^-1) and competing compound. Total and non-specific binding of [^125 I]-CCK8S were defined using 0.05 ml of buffer and 0.05 ml of […] L-365,260, respectively. The assay was terminated by rapid filtration through pre-soaked Whatman GF/B filters using a Brandell Cell harvester. The filters were washed (3×3 ml) with ice-cold 50 mM Tris-HC1 (pH7.4 @ 4° C.) and bound radioactivity determined by counting (1 min.) in a gamma-counter.
On to `O=C(NCC12CC3CC(CC(C3)C1)C2)C1C2CC(c3ccccc32)C1C(=O)N1CCC[C@@H]1C(=O)O` (mixture of isomers) [Example 59, (±)-endo-cis-6-(2R-carboxy-pyrrolidinocarbonyl)-7-(1-adamantylmethylaminocarbonyl)-2,3-benzobicyclo[2.2.1]heptane], for which the “CCKB pKi” value stood at 5.5.

Still in this test, the particulars now being: 150 min at 21±3°, read-out: CCKB pKi (converted).
`O=C(NCC12CC3CC(CC(C3)C1)C2)[C@@H]1[C@H](C(=O)O)[C@@H]2C=C[C@H]1c1ccccc12` (relative stereo) [Example 1, exo-(±)-cis-8-(1-adamantylmethylaminocarbonyl)-5,6-benzobicyclo[2.2.2]oct-2-ene-7-carboxylic acid]: the Ki is 3.98 µM.

As for `C[C@H](NC(=O)[C@H]1CCCN1C(=O)C1C2CCC(c3ccccc32)C1C(=O)NCC12CC3CC(CC(C3)C1)C2)C(=O)O` (stereo partly drawn) [Example 40, cis-exo-7-(2R-(1S-carboxyethylaminocarbonyl)-pyrrolidinocarbonyl)-8-(1-adamantylmethylaminocarbonyl)-2,3-benzobicyclo-[2.2.2.]octane], the Ki is 7.94 µM. Consider `O=C(NCC12CC3CC(CC(C3)C1)C2)C1C2c3ccccc3C(c3cc4ccccc4cc32)C1C(=O)N1CCC[C@@H]1C(=O)O` (stereo partly drawn) [Example 20, endo and exo cis-7-(2-R-carboxypyrrolidinocarbonyl)-8-(1-adamantylmethylaminocarbonyl)-2,3-benzo-5,6-(2,3-naphtho)bicyclo[2.2.2]octane], for which the Ki is 0.158 µM. For `O=C(NCC12CC3CC(CC(C3)C1)C2)C1C2C=CC(c3ccccc32)C1C(=O)N1C[C@H](O)C[C@@H]1C(=O)O` (stereo partly drawn) [Example 28, endo-cis-7-(2-R-carboxy-4-R-hydroxy-pyrrolidinocarbonyl)-8-(1-adamantylmethylaminocarbonyl)-5,6-benzo-bicyclo[2.2.2]oct-2-ene], the Ki is 2 µM. For `COC(=O)[C@@H]1CCCN1C(=O)C1C2c3ccccc3C(c3cc4ccccc4cc32)C1C(=O)NCC12CC3CC(CC(C3)C1)C2` (stereo partly drawn) [Example 21, endo and exo cis-7-(2-S-methoxy-carbonylpyrrolidinocarbonyl)-8-(1-adamantylmethylaminocarbonyl)-2,3-benzo-5,6-(2,3-naphtho) bicyclo-[2.2.2]octane], the Ki is 0.398 µM. As to `O=C(O)CNC(=O)[C@@H]1CCCN1C(=O)C1C2CCC(c3ccccc32)C1C(=O)NCC12CC3CC(CC(C3)C1)C2` (stereo partly drawn) [Example 49, cis-endo-7-(2S-carboxymethylaminocarbonyl-pyrrolidinocarbonyl)-8-(1-adamantylmethylaminocarbonyl)-2,3-benzobicyclo[2.2.2]octane], the Ki was 3.98 µM. Still for that read-out and setting: the value for `O=C(NCC12CC3CC(CC(C3)C1)C2)C1C(C(=O)N2CCC[C@@H]2C(=O)O)C2C=CC1C2(c1ccccc1)c1ccccc1` (mixture of isomers) [Example 53] was 1.58 µM. For the molecule `O=C(NCC1CCCCC1)[C@@H]1[C@H](C(=O)O)[C@@H]2C=C[C@H]1c1ccccc12` (relative stereo) [Example 3, exo-(±)-cis8-(1-cyclohexylmethylaminocarbonyl)-5,6-benzobicyclo[2.2.2]oct-2-ene-7-carboxylic acid], the Ki was 25.1 µM. On the same count and under the same terms, the value for `C[C@H](NC(=O)[C@H]1CCCN1C(=O)C1C2CCC(c3ccccc32)C1C(=O)NCC12CC3CC(CC(C3)C1)C2)C(=O)O` (stereo partly drawn) [Example 48, cis-endo-7-(2R-(1S-carboxyethylaminocarbonyl)-pyrrolidinocarbonyl)-8-(1-adamantylmethylaminocarbonyl)-2,3-benzobicyclo[2.2.2]octane] was 0.794 µM; that for `O=C(O)C1C2c3ccccc3C(c3cc4ccccc4cc32)C1C(=O)NCC12CC3CC(CC(C3)C1)C2` (racemic) [Example 14, endo and exo cis-(±)-8-(1-adamantylmethylaminocarbonyl)-2,3-benzo-5,6-(2,3-naphtho)bicyclo[2.2.2]octane-7-carboxylic acid] was 0.316 µM. On the same count and under the same terms, the value for `C[C@@H](NC(=O)[C@@H]1CCCN1C(=O)C1C2CCC(c3ccccc32)C1C(=O)NCC12CC3CC(CC(C3)C1)C2)C(=O)O` (stereo partly drawn) [Example 44, cis-exo-7-(2S-(1R-carboxyethylaminocarbonyl)-pyrrolidinocarbonyl)-8-(1-adamantylmethylaminocarbonyl)-2,3-benzobicyclo[2.2.2]octane] was 1 µM. In the case of `C[C@@H](NC(=O)[C@@H]1CCCN1C(=O)C1C2CCC(c3ccccc32)C1C(=O)NCC12CC3CC(CC(C3)C1)C2)C(=O)O` (stereo partly drawn) [Example 50, cis-endo-7-(2S-(1R-carboxyethylaminocarbonyl)-pyrrolidinocarbonyl)-8-(1-adamantylmethylaminocarbonyl)-2,3-benzobicyclo[2.2.2]octane], the Ki was 2.51 µM.

As for `COC(=O)[C@H]1CCCN1C(=O)C1C2C=CC(c3ccccc32)C1C(=O)NCC12CC3CC(CC(C3)C1)C2` (stereo partly drawn) [Example 32, exo-cis-7-(2-R-methoxycarbonyl-pyrrolidinocarbonyl)-8-(1-adamantylmethylaminocarbonyl)-5,6-benzo-bicyclo[2.2.2]oct-2-ene], the Ki is 0.316 µM. In the case of `C[C@@H](NC(=O)[C@H]1CCCN1C(=O)C1C2CCC(c3ccccc32)C1C(=O)NCC12CC3CC(CC(C3)C1)C2)C(=O)O` (stereo partly drawn) [Example 47, cis-endo-7-(2R-(1R-carboxyethylaminocarbonyl)-pyrrolidinocarbonyl)-8-(1-adamantylmethylaminocarbonyl)-2,3-benzobicyclo[2.2.2]octane], the Ki was 1.26 µM. For `C[C@H](NC(=O)[C@@H]1CCCN1C(=O)C1C2CCC(c3ccccc32)C1C(=O)NCC12CC3CC(CC(C3)C1)C2)C(=O)O` (stereo partly drawn) [Example 51, cis-endo-7-(2S-(1S-carboxyethylaminocarbonyl)-pyrrolidinocarbonyl)-8-(1-adamantylmethylaminocarbonyl)-2,3-benzobicyclo[2.2.2]octane], the Ki is 5.01 µM. Consider `O=C(O)[C@@H]1[C@H](C(=O)NCC2CCCCC2)[C@H]2C=C[C@@H]1c1ccccc12` (relative stereo) [Example 4, endo-(±)-cis-8-(1-cyclohexylmethylaminocarbonyl)-5,6-benzobicyclo[2.2.2]oct-2-ene-7-carboxylic acid], for which the Ki was 39.8 µM. `C[C@@H](NC(=O)C[C@@H]1CCCN1C(=O)C1C2CCC(c3ccccc32)C1C(=O)NCC12CC3CC(CC(C3)C1)C2)C(=O)O` (stereo partly drawn) [Example 52, cis-endo-7-(2S-(1R-carboxyethylaminocarbonylmethyl)-pyrrolidinocarbonyl)-8-(1-adamantylmethylaminocarbonyl)-2,3-benzobicyclo[2.2.2]octane]: the Ki is 0.1 µM.

Turning to `O=C(NCC12CC3CC(CC(C3)C1)C2)C1C2C=CC(CC2)C1C(=O)N1CCC[C@@H]1C(=O)O` (mixture of isomers) [Example 33, cis-(±)-2-(1-R-carboxy-pyrrolidinocarbonyl)-3-(1-adamantylmethylaminocarbonyl)-bicyclo[2.2.2]oct-5-ene], the Ki was 15.8 µM. For `CCCCCCCCNC(=O)[C@H]1[C@@H](C(=O)O)[C@@H]2C=C[C@H]1c1ccccc12` (relative stereo) [Example 6, endo-(±)-cis-8-(octylamino-carbonyl)-5,6-benzobicyclo[2.2.2]oct-2-ene-7-carboxylic acid], the Ki is 25.1 µM. The same measure, in the same setting: the value for `O=C(O)CNC(=O)[C@H]1CCCN1C(=O)C1C2CCC(c3ccccc32)C1C(=O)NCC12CC3CC(CC(C3)C1)C2` (stereo partly drawn) [Example 46, cis-endo-7-(2R-carboxymethylaminocarbonyl-pyrrolidinocarbonyl)-8-(1-adamantylmethylaminocarbonyl)-2,3-benzobicyclo[2.2.2]octane] was 0.398 µM; that for `CCCCCCCCNC(=O)[C@@H]1[C@H](C(=O)O)[C@@H]2C=C[C@H]1c1ccccc12` (relative stereo) [Example 5, exo-(±)-cis-8-(octylaminocarbonyl)-5,6-benzobicyclo[2.2.2]oct-2-ene-7-carboxylic acid] was 12.6 µM; that for `O=C(O)C1C2CC(c3ccccc32)C1C(=O)NCC12CC3CC(CC(C3)C1)C2` (mixture of isomers) [Example 57, endo-cis-(±)-7-(1-adamantylmethylaminocarbonyl)-2,3-benzobicyclo[2.2.1]hept-6-carboxylic acid] was 5.01 µM.
